In test [1] the target is human SST2 receptor (SSTR2) (Homo sapiens (Human), UniProt P30874). Kind of test: cAMP assay: inhibition of cAMP via human SST2 receptor in CHO-K1 cells. The class given is cell-based. To be noted: CHO-K1 cells stably expressing human SSTR2, NKH477 stimulated. From the text:
(§1) General overview: All five SSTR subtypes are Gi coupled G-protein coupled receptors (GPCRs) that lead to decreases in intracellular cyclic AMP (cAMP) when activated by an agonist. Therefore, measurement of intracellular cAMP levels can be used to assess whether compounds of the invention are agonists of SSTR subtypes (John Kelly, Troy Stevens, W. Joseph Thompson, and Roland Seifert, Current Protocols in Pharmacology, 2005, 2.2.1-2.2). One example of an intracellular cAMP assay is described below.
(§2) Four days prior to the assay, 5,000 Chinese hamster ovary cells (CHO-K1, ATCC # CCL-61) stably expressing the human somatostatin receptor subtype 2 are plated in each well of a 96-well tissue culture-treated plate in Ham's F12 growth media (ThermoFisher #10-080-CM) supplemented with 10% donor bovine serum (Gemini Bio-Products #100-506), 100 U/mL penicillin; 100 ug/mL streptomycin; 2 mM L-glutamine (Gemini Bio-Products #400-110) and 0.2 mg/mL hygromycin B (GoldBio #31282-04-9). The cells are cultured at 37° C., 5% CO2 and 95% humidity. On the day of the assay, the media is aspirated and the cells are treated with 50 μL of 1.6 μM NKH477 (Sigma # N3290) plus various dilutions of compounds of the invention in assay buffer [1× Hank's Balanced Salt Solution (ThermoFisher # SH3058802), 0.5 mM HEPES pH 7.4, 0.1% bovine serum albumin, 0.2 mM 3-Isobutyl-1-methylxanthine (IBMX, VWR #200002-790)]. The cells are incubated for 20 minutes at 37° C. (the final concentration of the compounds of the invention are typically 0-10,000 nM). The cells are treated with 50 μL of lysis buffer (HRTF cAMP kit, Cisbio). The lysate is transferred to 384-well plates and cAMP detection and visualization antibodies are added and incubated for 1-24 hours at room temperature. The time-resolved fluorescent signal is read with a Tecan M1000Pro multiplate reader. The intracellular cAMP concentrations are calculated by regression to a standard curve and are plotted vs. the concentration of the compounds of the invention and the EC50 of the compounds are calculated using standard methods. All data manipulations are in GraphPad Prism v6.

In a further test the test system is hSSTR2 vs. hSSTR4. The test can be described thus: Selectivity for inhibition of cAMP via hSSTR2 vs. hSSTR4. The test is classed as cell-based, human.
Source text: as §1, §2

Chain of human SST2 receptor (SSTR2) (P30874 whole entry): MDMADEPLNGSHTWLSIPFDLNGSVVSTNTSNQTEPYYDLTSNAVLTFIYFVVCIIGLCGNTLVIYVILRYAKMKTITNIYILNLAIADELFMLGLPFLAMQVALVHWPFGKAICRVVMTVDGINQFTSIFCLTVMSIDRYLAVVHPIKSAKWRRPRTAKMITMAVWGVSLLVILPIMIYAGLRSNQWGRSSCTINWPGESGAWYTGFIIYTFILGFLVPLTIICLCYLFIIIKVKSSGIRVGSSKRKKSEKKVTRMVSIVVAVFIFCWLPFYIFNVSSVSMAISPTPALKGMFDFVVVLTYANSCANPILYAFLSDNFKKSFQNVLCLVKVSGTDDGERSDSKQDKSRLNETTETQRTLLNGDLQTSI

On to `COc1cc(C#N)cc2[nH]c(-c3c(N)ncc(-c4cc(C)cc(F)c4)c3N3CCC(N)CC3)nc12` [Compound 1-1, 2-[2-amino-4-(4-aminopiperidin-1-yl)-5-(3-fluoro-5-methylphenyl)pyridin-3-yl]-4-methoxy-1H-1,3-benzodiazole-6-carbonitrile], for which, in test [1], the EC50 is < 0.1 nM. Moreover, the “hSST4/hSST2 (ratio)” value in the test on hSSTR2 vs. hSSTR4 (Table B) is recorded as “a (a = above 50,)”.
Take `COc1cc(C#N)cc2[nH]c(-c3c(N)ncc(-c4cc(F)cc(Cl)c4)c3N3CCC(N)CC3)nc12` [Compound 1-2, 2-[2-amino-4-(4-aminopiperidin-1-yl)-5-(3-chloro-5-fluorophenyl)pyridin-3-yl]-4-methoxy-1H-1,3-benzodiazole-6-carbonitrile]: the EC50 in test [1] was in the range of 0.1 to 1 nM.
`COc1cc(C#N)cc2nc(-c3c(N(C)C)ncc(-c4cc(C)cc(F)c4)c3N3CCC(N)CC3)[nH]c12` [Compound 1-3, 2-[4-(4-aminopiperidin-1-yl)-2-(dimethylamino)-5-(3-fluoro-5-methylphenyl)pyridin-3-yl]-4-methoxy-1H-1,3-benzodiazole-6-carbonitrile]: in test [1], the EC50 was ≥ 1 nM.
As for `COC(=O)c1ncc(-c2cc(C)cc(F)c2)c(N2CCC(N)CC2)c1-c1nc2cc(F)cc(OC)c2[nH]1` [Compound 2-1, methyl 4-(4-aminopiperidin-1-yl)-3-(6-fluoro-4-methoxy-1H-1,3-benzodiazol-2-yl)-5-(3-fluoro-5-methylphenyl)pyridine-2-carboxylate], in test [1], the concentration for a half-maximal effect (EC50) was 0.1 to 1 nM. For the same molecule, in the test on hSSTR2 vs. hSSTR4 (Table B), the “hSST4/hSST2 (ratio)” value was “d (d = between 1 and 2.5;)”.
Consider `COc1cc(F)cc2nc(-c3c(C#N)ncc(-c4cc(C)cc(F)c4)c3N3CCC(N)CC3)[nH]c12` [Compound 2-2, 4-(4-aminopiperidin-1-yl)-3-(6-fluoro-4-methoxy-1H-1,3-benzodiazol-2-yl)-5-(3-fluoro-5-methylphenyl)pyridine-2-carbonitrile], for which, in test [1], the EC50 is 0.1 to 1 nM.
`COc1cc(F)cc2nc(-c3c(C(N)=O)ncc(-c4cc(C)cc(F)c4)c3N3CCC(N)CC3)[nH]c12` [Compound 2-3, 4-(4-aminopiperidin-1-yl)-3-(6-fluoro-4-methoxy-1H-1,3-benzodiazol-2-yl)-5-(3-fluoro-5-methylphenyl)pyridine-2-carboxamide] yielded a 50% effective concentration (EC50) in test [1] of 0.1 to 1 nM.
For `Cc1cc(F)cc(-c2cnc(N)c(-c3nc4c(F)cc(F)cc4[nH]3)c2N2CC[C@@H]3NCCO[C@H]3C2)c1` [Compound 3-1, 4-[(4αS,8αS)-octahydro-1H-pyrido[3,4-b][1,4]oxazin-6-yl]-3-(4,6-difluoro-1H-1,3-benzodiazol-2-yl)-5-(3-fluoro-5-methylphenyl)pyridin-2-amine], the EC50 in test [1] was < 0.1 nM.
Take `Nc1ncc(-c2cc(F)cc(F)c2)c(N2CCC3OCCNC3C2)c1-c1nc2c(F)cc(F)cc2[nH]1` (centres unmarked) [Compound 3-2, 4-[(4αS,8αS)-octahydro-1H-pyrido[3,4-b][1,4]oxazin-6-yl]-3-(4,6-difluoro-1H-1,3-benzodiazol-2-yl)-5-(3,5-difluorophenyl)pyridin-2-amine]: the EC50 in test [1] was in the range of 0.1 to 1 nM.
For `CNc1ncc(-c2cc(F)cc(F)c2)c(N2CC[C@@H]3NCCO[C@H]3C2)c1-c1nc2c(F)cc(F)cc2[nH]1` [Compound 3-6, 4-[(4αS,8αS)-octahydro-1H-pyrido[3,4-b][1,4]oxazin-6-yl]-3-(4,6-difluoro-1H-1,3-benzodiazol-2-yl)-5-(3,5-difluorophenyl)-N-methylpyridin-2-amine], the EC50 in test [1] is 0.1 to 1 nM.
`Nc1ncc(-c2cc(F)cc(Cl)c2)c(N2CC[C@@H]3NCCO[C@H]3C2)c1-c1nc2c(F)cc(F)cc2[nH]1` [Compound 3-7, 4-[(4αS,8αS)-octahydro-1H-pyrido[3,4-b][1,4]oxazin-6-yl]-5-(3-chloro-5-fluorophenyl)-3-(4,6-difluoro-1H-1,3-benzodiazol-2-yl)pyridin-2-amine]: the EC50 in test [1] was < 0.1 nM.
With `COc1cc(F)cc(-c2cnc(N)c(-c3nc4c(F)cc(F)cc4[nH]3)c2N2CCC3OCCNC3C2)c1` (centres unmarked) [Compound 3-8, 4-[(4αS,8αS)-octahydro-1H-pyrido[3,4-b][1,4]oxazin-6-yl]-3-(4,6-difluoro-1H-1,3-benzodiazol-2-yl)-5-(3-fluoro-5-methoxyphenyl)pyridin-2-amine], in test [1], the EC50 was < 0.1 nM.
`COc1cc(F)cc2[nH]c(-c3c(N)ncc(-c4cccc(F)c4)c3N3CC[C@@H]4NCCO[C@H]4C3)nc12` [Compound 3-9, 4-[(4αS,8αS)-octahydro-1H-pyrido[3,4-b][1,4]oxazin-6-yl]-3-(6-fluoro-4-methoxy-1H-1,3-benzodiazol-2-yl)-5-(3-fluorophenyl)pyridin-2-amine] came in with a 50% effective concentration (EC50) in test [1] of 0.1 to 1 nM. The “hSST4/hSST2 (ratio)” value with hSSTR2 vs. hSSTR4 (Table C) was “c (c = between 2.5 and 15;)”.
For `CNc1ncc(-c2cccc(F)c2)c(N2CC[C@@H]3NCCO[C@H]3C2)c1-c1nc2c(OC)cc(F)cc2[nH]1` [Compound 3-10, 4-[(4αS,8αS)-octahydro-1H-pyrido[3,4-b][1,4]oxazin-6-yl]-3-(6-fluoro-4-methoxy-1H-1,3-benzodiazol-2-yl)-5-(3-fluorophenyl)-N-methylpyridin-2-amine], in test [1], the concentration giving a half-maximal response (EC50) was 0.1 to 1 nM. Also, the “hSST4/hSST2 (ratio)” value in the test with hSSTR2 vs. hSSTR4 (Table C) is given as “a (a = above 50,)”.
`CNc1ncc(-c2cccc(F)c2)c(N2CC[C@@H]3NCCO[C@H]3C2)c1-c1nc2c(OC)cc(C#N)cc2[nH]1` [Compound 3-12, 2-{4-[(4αS,8αS)-octahydro-1H-pyrido[3,4-b][1,4]oxazin-6-yl]-5-(3-fluorophenyl)-2-(methylamino)pyridin-3-yl}-4-methoxy-1H-1,3-benzodiazole-6-carbonitrile]: the EC50 in test [1] was ≥ 1 nM. The “hSST4/hSST2 (ratio)” value with hSSTR2 vs. hSSTR4 (Table C) is reported as “a (a = above 50,)”.
The like results for `CNc1ncc(-c2cc(F)cc(Cl)c2)c(N2CC[C@@H]3NCCO[C@H]3C2)c1-c1nc2c(OC)cc(F)cc2[nH]1` [Compound 3-13, 4-[(4αS,8αS)-octahydro-1H-pyrido[3,4-b][1,4]oxazin-6-yl]-5-(3-chloro-5-fluorophenyl)-3-(6-fluoro-4-methoxy-1H-1,3-benzodiazol-2-yl)-N-methylpyridin-2-amine] were, in that order, 0.1 to 1 nM and “a (a = above 50,)”.
Consider `COc1cc(F)cc2[nH]c(-c3c(N)ncc(-c4cc(C)cc(F)c4)c3N3CC[C@@H]4NCCO[C@H]4C3)nc12` [Compound 3-14, 4-[(4αS, 8αS)-octahydro-1H-pyrido[3,4-b][1,4]oxazin-6-yl]-3-(6-fluoro-4-methoxy-1H-1,3-benzodiazol-2-yl)-5-(3-fluoro-5-methylphenyl)pyridin-2-amine], for which the EC50 in test [1] was < 0.1 nM.
As for `CNc1ncc(-c2cc(C)cc(F)c2)c(N2CCC3OCCNC3C2)c1-c1nc2c(OC)cc(F)cc2[nH]1` (centres unmarked) [Compound 3-15, 4-[(4αS,8αS)-octahydro-1H-pyrido[3,4-b][1,4]oxazin-6-yl]-3-(6-fluoro-4-methoxy-1H-1,3-benzodiazol-2-yl)-5-(3-fluoro-5-methylphenyl)-N-methylpyridin-2-amine], in test [1], the EC50 was < 0.1 nM.
As for `COc1cc(C#N)cc2[nH]c(-c3c(N)ncc(-c4cc(C)cc(F)c4)c3N3CC[C@@H]4NCCO[C@H]4C3)nc12` [Compound 3-16, 2-{4-[(4αS,8αS)-octahydro-1H-pyrido[3,4-b][1,4]oxazin-6-yl]-2-amino-5-(3-fluoro-5-methylphenyl)pyridin-3-yl}-4-methoxy-1H-1,3-benzodiazole-6-carbonitrile], in test [1], the EC50 was < 0.1 nM.
As for `COc1cc(F)cc2[nH]c(-c3c(N)ncc(-c4cc(F)cc(Cl)c4)c3N3CC[C@@H]4OCCN[C@H]4C3)nc12` [Compound 3-17, 4-[(4αS,8αS)-octahydro-1H-pyrido[3,4-b][1,4]oxazin-6-yl]-5-(3-chloro-5-fluorophenyl)-3-(6-fluoro-4-methoxy-1H-1,3-benzodiazol-2-yl)pyridin-2-amine], the EC50 in test [1] is < 0.1 nM. In the test on hSSTR2 vs. hSSTR4 (Table C), the “hSST4/hSST2 (ratio)” value is “c (c = between 2.5 and 15;)”.

(Values after patent US10696689B2, “Somatostatin modulators and uses thereof” (CRINETICS PHARMACEUTICALS, INC., priority 2018, dated 2020).)
